Source: patent publication US20230053524A1, “FUNGICIDES TO PREVENT AND CONTROL FUNGAL PATHOGENS” (priority 2020, published 2023)

Key:
Assay type in all cases: cell-based
Details in all cases: 168 h, read-out: ED50
[1] = tested on: Plectosphaerella cucumerina; assay: In vitro bioassay, mycelia growth on PDA (Example 1)
Fusarium graminearum = assay: microbe, parasite or virus in culture
Alternaria radicina = assay: In vitro bioassay, mycelia growth on PDA (Example 1)

Compound	EC50 [1]	EC50 (Fusarium graminearum)	EC50 (Alternaria radicina)
CS(=O)(=O)CCCCCCCCN=C=S [0/100, 1-Isothiocyanato-8-(methylsulfonyl)-octane]	480 µM	536 µM	763 µM
C[S+]([O-])CCCCCCCCN=C=S (stereo not drawn) [100/0, 1-Isothiocyanato-8-(methylsulfinyl)-octane]	312 µM	331 µM	228 µM
